# Results as given in patent publication US4479943A, “3-Demethoxyistamycin B, the 2"-N-formimidoyl derivative thereof and pharmaceutical composition containing same” (Zaidan Hojin Biseibutsu Kagaku Kenkyu Kai, priority 1982, dated 1984).
# How the values were obtained:
# [1] = tested on: Mycobacterium smegmatis ATCC 607; assay: Antibacterial MIC, standard serial dilution; format: cell-based; settings: nutrient agar, 37° C., 17 hours, as free base
# [2] = tested on: Staphylococcus aureus Ap01; assay: Antibacterial MIC, standard serial dilution; format: cell-based; settings: nutrient agar, 37° C., 17 hours, as free base
# [3] = tested on: Pseudomonas aeruginosa TI-13; assay: Antibacterial MIC, standard serial dilution; format: cell-based; settings: nutrient agar, 37° C., 17 hours, as free base
# Providencia sp. Pv16 = assay: Antibacterial MIC, standard serial dilution; format: cell-based; settings: nutrient agar, 37° C., 17 hours, as free base
# [4] = tested on: Salmonella enteritidis 1891; assay: Antibacterial MIC, standard serial dilution; format: cell-based; settings: nutrient agar, 37° C., 17 hours, as free base
# Bacillus anthracis = format: cell-based; settings: nutrient agar, 37° C., 17 hours, as free base
# [5] = tested on: Bacillus subtilis NRRL B-558; assay: Antibacterial MIC, standard serial dilution; format: cell-based; settings: nutrient agar, 37° C., 17 hours, as free base
# [6] = tested on: Pseudomonas aeruginosa H9; assay: Antibacterial MIC, standard serial dilution; format: cell-based; settings: nutrient agar, 37° C., 17 hours, as free base
# Escherichia coli JR225 = assay: Antibacterial MIC, standard serial dilution; format: cell-based; settings: nutrient agar, 37° C., 17 hours, as free base
# [7] = tested on: Klebsiella pneumoniae 22#3038; assay: Antibacterial MIC, standard serial dilution; format: cell-based; settings: nutrient agar, 37° C., 17 hours, as free base
# [8] = tested on: Pseudomonas aeruginosa No. 12; assay: Antibacterial MIC, standard serial dilution; format: cell-based; settings: nutrient agar, 37° C., 17 hours, as free base
# [9] = tested on: Pseudomonas aeruginosa GN315; assay: Antibacterial MIC, standard serial dilution; format: cell-based; settings: nutrient agar, 37° C., 17 hours, as free base
# Proteus rettgeri GN466 = assay: Antibacterial MIC, standard serial dilution; format: cell-based; settings: nutrient agar, 37° C., 17 hours, as free base
# [10] = tested on: Pseudomonas aeruginosa 99; assay: Antibacterial MIC, standard serial dilution; format: cell-based; settings: nutrient agar, 37° C., 17 hours, as free base
# Salmonella typhi T-63 = assay: Antibacterial MIC, standard serial dilution; format: cell-based; settings: nutrient agar, 37° C., 17 hours, as free base
# [11] = tested on: Escherichia coli JR66/W677; assay: Antibacterial MIC, standard serial dilution; format: cell-based; settings: nutrient agar, 37° C., 17 hours, as free base
# [12] = tested on: Staphylococcus epidermidis 109; assay: Antibacterial MIC, standard serial dilution; format: cell-based; settings: nutrient agar, 37° C., 17 hours, as free base
# [13] = tested on: Pseudomonas aeruginosa PST1; assay: Antibacterial MIC, standard serial dilution; format: cell-based; settings: nutrient agar, 37° C., 17 hours, as free base
# [14] = tested on: Pseudomonas maltophilia GN 907; assay: Antibacterial MIC, standard serial dilution; format: cell-based; settings: nutrient agar, 37° C., 17 hours, as free base
# Escherichia coli NIHJ = assay: Antibacterial MIC, standard serial dilution; format: cell-based; settings: nutrient agar, 37° C., 17 hours, as free base
# [15] = tested on: Pseudomonas aeruginosa B-13; assay: Antibacterial MIC, standard serial dilution; format: cell-based; settings: nutrient agar, 37° C., 17 hours, as free base
# [16] = tested on: Micrococcus flavus FDA 16; assay: Antibacterial MIC, standard serial dilution; format: cell-based; settings: nutrient agar, 37° C., 17 hours, as free base
# [17] = tested on: Escherichia coli K-12 ML1629; assay: Antibacterial MIC, standard serial dilution; format: cell-based; settings: nutrient agar, 37° C., 17 hours, as free base
# [18] = tested on: Bacillus cereus ATCC 10702; assay: Antibacterial MIC, standard serial dilution; format: cell-based; settings: nutrient agar, 37° C., 17 hours, as free base
# Providencia sp. 2991 = assay: Antibacterial MIC, standard serial dilution; format: cell-based; settings: nutrient agar, 37° C., 17 hours, as free base
# [19] = tested on: Escherichia coli K-12 ML1630; assay: Antibacterial MIC, standard serial dilution; format: cell-based; settings: nutrient agar, 37° C., 17 hours, as free base
# [20] = tested on: Pseudomonas aeruginosa 21-75; assay: Antibacterial MIC, standard serial dilution; format: cell-based; settings: nutrient agar, 37° C., 17 hours, as free base
# [21] = tested on: Bacillus subtilis PCI 219; assay: Antibacterial MIC, standard serial dilution; format: cell-based; settings: nutrient agar, 37° C., 17 hours, as free base
# [22] = tested on: Escherichia coli K-12 ML1410; assay: Antibacterial MIC, standard serial dilution; format: cell-based; settings: nutrient agar, 37° C., 17 hours, as free base
# [23] = tested on: Escherichia coli K-12 LA290 R55; assay: Antibacterial MIC, standard serial dilution; format: cell-based; settings: nutrient agar, 37° C., 17 hours, as free base
# Sarcina lutea PCI 1001 = assay: Antibacterial MIC, standard serial dilution; format: cell-based; settings: nutrient agar, 37° C., 17 hours, as free base
# Proteus vulgaris 0X19 = assay: Antibacterial MIC, standard serial dilution; format: cell-based; settings: nutrient agar, 37° C., 17 hours, as free base
# [24] = tested on: Escherichia coli K-12 LA290 R56; assay: Antibacterial MIC, standard serial dilution; format: cell-based; settings: nutrient agar, 37° C., 17 hours, as free base
# Proteus rettgeri GN311 = assay: Antibacterial MIC, standard serial dilution; format: cell-based; settings: nutrient agar, 37° C., 17 hours, as free base
# [25] = tested on: Escherichia coli K-12 J5R11-2; assay: Antibacterial MIC, standard serial dilution; format: cell-based; settings: nutrient agar, 37° C., 17 hours, as free base
# [26] = tested on: Corynebacterium bovis 1810; assay: Antibacterial MIC, standard serial dilution; format: cell-based; settings: nutrient agar, 37° C., 17 hours, as free base
# [27] = tested on: Shigella dysenteriae JS11910; assay: Antibacterial MIC, standard serial dilution; format: cell-based; settings: nutrient agar, 37° C., 17 hours, as free base
# [28] = tested on: Pseudomonas aeruginosa ROS 134/PU21; assay: Antibacterial MIC, standard serial dilution; format: cell-based; settings: nutrient agar, 37° C., 17 hours, as free base
# [29] = tested on: Klebsiella pneumoniae PCI602; assay: Antibacterial MIC, standard serial dilution; format: cell-based; settings: nutrient agar, 37° C., 17 hours, as free base
# [30] = tested on: Escherichia coli K-12 C600 R135; assay: Antibacterial MIC, standard serial dilution; format: cell-based; settings: nutrient agar, 37° C., 17 hours, as free base
# [31] = tested on: Staphylococcus aureus FDA 209P; assay: Antibacterial MIC, standard serial dilution; format: cell-based; settings: nutrient agar, 37° C., 17 hours, as free base
# Escherichia coli W677 = assay: Antibacterial MIC, standard serial dilution; format: cell-based; settings: nutrient agar, 37° C., 17 hours, as free base
# Serratia marcescens = assay: Antibacterial MIC, standard serial dilution; format: cell-based; settings: nutrient agar, 37° C., 17 hours, as free base
# [32] = tested on: Pseudomonas aeruginosa H11; assay: Antibacterial MIC, standard serial dilution; format: cell-based; settings: nutrient agar, 37° C., 17 hours, as free base
# bacteria = settings: in words; earlier work; cited from earlier work
# [33] = tested on: Escherichia coli K-12 R388; assay: Antibacterial MIC, standard serial dilution; format: cell-based; settings: nutrient agar, 37° C., 17 hours, as free base
# [34] = tested on: Pseudomonas aeruginosa A3; assay: Antibacterial MIC, standard serial dilution; format: cell-based; settings: nutrient agar, 37° C., 17 hours, as free base
# Serratia sp. SOU = assay: Antibacterial MIC, standard serial dilution; format: cell-based; settings: nutrient agar, 37° C., 17 hours, as free base
# [35] = tested on: Pseudomonas aeruginosa K-Ps 102; assay: Antibacterial MIC, standard serial dilution; format: cell-based; settings: nutrient agar, 37° C., 17 hours, as free base
# Escherichia coli K-12 = assay: Antibacterial MIC, standard serial dilution; format: cell-based; settings: nutrient agar, 37° C., 17 hours, as free base
# Serratia sp. 4 = assay: Antibacterial MIC, standard serial dilution; format: cell-based; settings: nutrient agar, 37° C., 17 hours, as free base
# [36] = tested on: Staphylococcus aureus Smith; assay: Antibacterial MIC, standard serial dilution; format: cell-based; settings: nutrient agar, 37° C., 17 hours, as free base
structure (smiles),measurement,setting,value
"CNCC1CCC(N)C(OC2C(N)CC(O)C(N(C)C(=O)CN)C2O)O1 (stereo not shown) [Demethyl ista B, 3-O-demethylistamycin B]",MIC,[1],0.78 µg/mL
same,MIC,[2],0.39 µg/mL
same,MIC,[3],6.25 µg/mL
same,MIC,Providencia sp. Pv16,0.78 µg/mL
same,MIC,[4],1.56 µg/mL
same,MIC,Bacillus anthracis,0.78 µg/mL
same,MIC,[5],0.39 µg/mL
same,MIC,[6],12.5 µg/mL
same,MIC,Escherichia coli JR225,0.78 µg/mL
same,MIC,[7],3.13 µg/mL
same,MIC,[8],12.5 µg/mL
same,MIC,[9],6.25 µg/mL
same,MIC,Proteus rettgeri GN466,0.39 µg/mL
same,MIC,[10],25 µg/mL
same,MIC,Salmonella typhi T-63,0.39 µg/mL
same,MIC,[11],1.56 µg/mL
same,MIC,[12],0.39 µg/mL
same,MIC,[13],12.5 µg/mL
same,MIC,[14],100 µg/mL
same,MIC,Escherichia coli NIHJ,0.39 µg/mL
same,MIC,[15],25 µg/mL
same,MIC,[16],3.13 µg/mL
same,MIC,[17],1.56 µg/mL
same,MIC,[18],1.56 µg/mL
same,MIC,Providencia sp. 2991,1.56 µg/mL
same,MIC,[19],3.13 µg/mL
same,MIC,[20],25 µg/mL
same,MIC,[21],0.39 µg/mL
same,MIC,[22],3.13 µg/mL
same,MIC,[23],0.78 µg/mL
same,MIC,Sarcina lutea PCI 1001,0.39 µg/mL
same,MIC,Proteus vulgaris 0X19,0.39 µg/mL
same,MIC,[24],0.78 µg/mL
same,MIC,Proteus rettgeri GN311,0.39 µg/mL
same,MIC,[25],1.56 µg/mL
same,MIC,[26],0.39 µg/mL
same,MIC,[27],3.13 µg/mL
same,MIC,[28],50 µg/mL
same,MIC,[29],1.56 µg/mL
same,MIC,[30],1.56 µg/mL
same,MIC,[31],0.39 µg/mL
same,MIC,Escherichia coli W677,0.78 µg/mL
same,MIC,Serratia marcescens,1.56 µg/mL
same,MIC,[32],25 µg/mL
same,antibacterial activity,bacteria,active not only against Pseudomonas aeruginosa but also against a variety of resistant bacteria
same,MIC,[33],0.78 µg/mL
same,MIC,[34],0.20 µg/mL
same,MIC,Serratia sp. SOU,6.25 µg/mL
same,MIC,[35],6.25 µg/mL
same,MIC,Escherichia coli K-12,0.78 µg/mL
same,MIC,Serratia sp. 4,12.5 µg/mL
same,MIC,[36],0.39 µg/mL
